9 molecules from ChEMBL document CHEMBL5291721, “A preclinical secondary pharmacology resource illuminates target-adverse drug reaction associations of marketed drugs” (Nat Commun, 2023) can be followed below.

Some results are limits rather than exact numbers.

Targets include Vasopressin V1a receptor (Homo sapiens, UniProt P37288); Melanocortin receptor 3 (Homo sapiens, UniProt P41968); Adenosine receptor A2a (Homo sapiens, UniProt P29274); Melanocortin receptor 4 (Homo sapiens, UniProt P32245).
Experiment [1] deals with 5-hydroxytryptamine receptor 2B (Homo sapiens, UniProt P41595). The experiment is classed as functional, cell-based.
5-hydroxytryptamine receptor 2B, sequence (P41595 whole entry): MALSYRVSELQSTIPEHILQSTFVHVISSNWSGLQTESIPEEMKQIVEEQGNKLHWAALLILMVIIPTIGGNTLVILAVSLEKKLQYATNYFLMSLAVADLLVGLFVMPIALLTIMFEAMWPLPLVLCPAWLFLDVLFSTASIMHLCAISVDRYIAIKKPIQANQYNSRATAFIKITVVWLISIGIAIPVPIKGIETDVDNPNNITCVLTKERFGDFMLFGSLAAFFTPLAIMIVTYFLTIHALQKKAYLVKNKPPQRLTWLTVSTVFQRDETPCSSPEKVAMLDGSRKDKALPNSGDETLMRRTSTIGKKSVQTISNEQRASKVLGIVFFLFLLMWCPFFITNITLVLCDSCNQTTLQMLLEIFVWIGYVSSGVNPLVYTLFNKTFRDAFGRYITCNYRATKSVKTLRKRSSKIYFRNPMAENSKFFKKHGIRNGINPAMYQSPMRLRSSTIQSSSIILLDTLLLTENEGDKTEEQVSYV
The target in experiment [2] is T1, Muscarinic acetylcholine receptor M2 (Homo sapiens, UniProt P08172).
T1 sequence (P08172 whole entry): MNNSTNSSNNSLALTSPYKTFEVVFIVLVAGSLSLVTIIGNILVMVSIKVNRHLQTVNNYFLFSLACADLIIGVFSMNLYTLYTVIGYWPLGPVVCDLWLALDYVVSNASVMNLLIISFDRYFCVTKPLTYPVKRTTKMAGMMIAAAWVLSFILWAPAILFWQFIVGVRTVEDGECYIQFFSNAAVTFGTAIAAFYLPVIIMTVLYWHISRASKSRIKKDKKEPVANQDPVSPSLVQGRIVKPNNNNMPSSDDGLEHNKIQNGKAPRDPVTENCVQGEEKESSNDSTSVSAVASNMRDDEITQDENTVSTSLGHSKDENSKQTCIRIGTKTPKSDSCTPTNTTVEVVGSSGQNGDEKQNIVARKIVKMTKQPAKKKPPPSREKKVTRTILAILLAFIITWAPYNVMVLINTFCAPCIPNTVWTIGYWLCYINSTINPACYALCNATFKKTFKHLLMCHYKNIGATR
The experiment is classed as functional, cell-based.

The target of experiment [3] is cGMP-inhibited 3',5'-cyclic phosphodiesterase 3A (Homo sapiens, UniProt Q14432). The experiment is classed as functional.
cGMP-inhibited 3',5'-cyclic phosphodiesterase 3A, sequence (Q14432 whole entry): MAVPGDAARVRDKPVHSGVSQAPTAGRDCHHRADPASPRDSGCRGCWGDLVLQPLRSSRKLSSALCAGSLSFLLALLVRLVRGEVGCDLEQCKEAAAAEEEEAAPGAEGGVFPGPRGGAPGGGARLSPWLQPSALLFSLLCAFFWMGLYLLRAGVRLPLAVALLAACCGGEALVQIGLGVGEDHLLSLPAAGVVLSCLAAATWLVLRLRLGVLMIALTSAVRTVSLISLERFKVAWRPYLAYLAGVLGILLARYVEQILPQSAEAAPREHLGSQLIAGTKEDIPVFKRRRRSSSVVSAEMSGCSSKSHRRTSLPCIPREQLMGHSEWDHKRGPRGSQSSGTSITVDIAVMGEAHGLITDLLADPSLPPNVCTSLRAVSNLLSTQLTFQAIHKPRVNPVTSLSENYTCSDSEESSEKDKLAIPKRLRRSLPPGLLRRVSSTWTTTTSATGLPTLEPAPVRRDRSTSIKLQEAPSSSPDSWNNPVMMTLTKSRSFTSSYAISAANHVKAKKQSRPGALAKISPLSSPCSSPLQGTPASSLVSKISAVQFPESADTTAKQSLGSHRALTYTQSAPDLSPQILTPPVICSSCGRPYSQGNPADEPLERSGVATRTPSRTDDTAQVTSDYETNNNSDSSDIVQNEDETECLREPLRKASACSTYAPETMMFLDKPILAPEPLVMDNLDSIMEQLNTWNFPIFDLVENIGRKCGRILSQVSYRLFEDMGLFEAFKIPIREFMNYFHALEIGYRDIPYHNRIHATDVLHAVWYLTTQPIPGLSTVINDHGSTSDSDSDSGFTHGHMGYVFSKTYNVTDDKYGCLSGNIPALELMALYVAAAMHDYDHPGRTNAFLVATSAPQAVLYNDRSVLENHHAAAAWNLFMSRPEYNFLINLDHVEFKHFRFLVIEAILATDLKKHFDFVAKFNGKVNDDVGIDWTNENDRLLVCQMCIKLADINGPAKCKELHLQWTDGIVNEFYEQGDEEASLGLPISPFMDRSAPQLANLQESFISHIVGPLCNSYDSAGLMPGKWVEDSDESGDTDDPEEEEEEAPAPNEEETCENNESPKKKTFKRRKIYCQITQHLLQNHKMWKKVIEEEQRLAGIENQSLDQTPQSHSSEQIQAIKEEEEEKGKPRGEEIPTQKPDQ
For experiment [4], the target named is T2, Alpha-2A adrenergic receptor (Homo sapiens, UniProt P08913).
T2 sequence (P08913 whole entry): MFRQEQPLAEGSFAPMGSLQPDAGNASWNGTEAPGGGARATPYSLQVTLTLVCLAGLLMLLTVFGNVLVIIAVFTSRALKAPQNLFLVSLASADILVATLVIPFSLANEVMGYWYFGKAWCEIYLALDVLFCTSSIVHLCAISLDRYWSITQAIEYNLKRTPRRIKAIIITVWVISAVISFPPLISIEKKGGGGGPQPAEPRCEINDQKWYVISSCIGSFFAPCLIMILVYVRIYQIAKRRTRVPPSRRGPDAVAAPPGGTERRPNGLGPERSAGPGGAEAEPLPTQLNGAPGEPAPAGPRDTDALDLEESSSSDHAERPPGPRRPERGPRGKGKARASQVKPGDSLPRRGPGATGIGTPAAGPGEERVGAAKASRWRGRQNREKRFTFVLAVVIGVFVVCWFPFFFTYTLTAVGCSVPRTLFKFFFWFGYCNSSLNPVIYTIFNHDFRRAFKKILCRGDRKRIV
The experiment is classed as functional, cell-based.

For experiment [5], the target named is T3, 5-hydroxytryptamine receptor 1A (Homo sapiens, UniProt P08908).
T3 sequence (P08908 whole entry): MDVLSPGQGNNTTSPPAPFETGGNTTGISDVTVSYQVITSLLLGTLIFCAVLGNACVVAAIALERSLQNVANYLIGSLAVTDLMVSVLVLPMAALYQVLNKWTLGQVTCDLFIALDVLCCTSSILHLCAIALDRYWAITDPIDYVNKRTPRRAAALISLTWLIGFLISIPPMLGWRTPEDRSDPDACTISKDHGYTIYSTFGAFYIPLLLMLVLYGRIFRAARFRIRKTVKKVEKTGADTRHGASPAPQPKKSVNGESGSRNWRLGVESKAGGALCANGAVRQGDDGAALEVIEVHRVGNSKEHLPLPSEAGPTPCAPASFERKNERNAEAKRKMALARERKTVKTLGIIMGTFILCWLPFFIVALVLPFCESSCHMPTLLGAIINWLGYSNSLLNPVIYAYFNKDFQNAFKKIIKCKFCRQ
Type of experiment: functional, cell-based.

The target of experiment [6] is Growth hormone secretagogue receptor type 1 (Homo sapiens, UniProt Q92847).
Growth hormone secretagogue receptor type 1, sequence (Q92847 whole entry): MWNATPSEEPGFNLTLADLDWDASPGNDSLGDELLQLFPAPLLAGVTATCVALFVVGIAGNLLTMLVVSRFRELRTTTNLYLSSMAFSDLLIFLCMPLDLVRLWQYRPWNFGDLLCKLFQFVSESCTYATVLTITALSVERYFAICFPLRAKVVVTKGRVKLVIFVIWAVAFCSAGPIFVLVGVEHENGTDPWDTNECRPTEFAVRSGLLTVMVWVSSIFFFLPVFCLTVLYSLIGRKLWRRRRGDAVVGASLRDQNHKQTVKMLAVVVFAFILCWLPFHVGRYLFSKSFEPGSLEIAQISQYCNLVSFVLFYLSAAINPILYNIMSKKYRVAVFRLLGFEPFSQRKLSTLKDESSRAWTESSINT
For experiment [7], the target named is T4, Amine oxidase [flavin-containing] A (Homo sapiens, UniProt P21397).
T4 sequence (P21397 whole entry): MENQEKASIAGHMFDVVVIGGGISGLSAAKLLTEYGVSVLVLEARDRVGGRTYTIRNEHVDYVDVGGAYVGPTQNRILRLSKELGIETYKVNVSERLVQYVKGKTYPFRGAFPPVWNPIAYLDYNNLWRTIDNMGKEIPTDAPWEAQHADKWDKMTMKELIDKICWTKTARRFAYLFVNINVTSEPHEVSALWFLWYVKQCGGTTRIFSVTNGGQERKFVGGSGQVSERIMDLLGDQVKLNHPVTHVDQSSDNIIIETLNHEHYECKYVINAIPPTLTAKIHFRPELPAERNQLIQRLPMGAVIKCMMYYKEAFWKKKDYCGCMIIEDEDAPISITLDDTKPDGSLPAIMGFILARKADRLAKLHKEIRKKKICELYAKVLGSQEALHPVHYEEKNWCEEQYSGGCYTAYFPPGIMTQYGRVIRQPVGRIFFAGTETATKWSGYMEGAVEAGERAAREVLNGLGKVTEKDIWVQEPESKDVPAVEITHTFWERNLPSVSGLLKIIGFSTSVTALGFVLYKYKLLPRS
Type of experiment: functional.

The target of experiment [8] is T5, Neuropeptide Y receptor type 1 (Homo sapiens, UniProt P25929).
T5 sequence (P25929 whole entry): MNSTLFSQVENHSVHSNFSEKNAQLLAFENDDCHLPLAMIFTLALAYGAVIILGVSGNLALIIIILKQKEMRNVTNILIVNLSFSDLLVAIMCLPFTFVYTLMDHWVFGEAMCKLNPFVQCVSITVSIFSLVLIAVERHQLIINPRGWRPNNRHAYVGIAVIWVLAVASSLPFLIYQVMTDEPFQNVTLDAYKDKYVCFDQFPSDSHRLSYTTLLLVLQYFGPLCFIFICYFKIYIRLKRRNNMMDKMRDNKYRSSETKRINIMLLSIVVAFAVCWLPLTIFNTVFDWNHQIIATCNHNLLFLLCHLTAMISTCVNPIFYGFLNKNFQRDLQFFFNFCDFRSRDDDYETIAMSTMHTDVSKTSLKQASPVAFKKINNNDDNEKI

Another experiment concerns the target D(1A) dopamine receptor (Homo sapiens, UniProt P21728). Type of experiment: functional, cell-based.
Also: assay procedure not described here.

Adenosine receptor A2a, sequence (P29274 whole entry): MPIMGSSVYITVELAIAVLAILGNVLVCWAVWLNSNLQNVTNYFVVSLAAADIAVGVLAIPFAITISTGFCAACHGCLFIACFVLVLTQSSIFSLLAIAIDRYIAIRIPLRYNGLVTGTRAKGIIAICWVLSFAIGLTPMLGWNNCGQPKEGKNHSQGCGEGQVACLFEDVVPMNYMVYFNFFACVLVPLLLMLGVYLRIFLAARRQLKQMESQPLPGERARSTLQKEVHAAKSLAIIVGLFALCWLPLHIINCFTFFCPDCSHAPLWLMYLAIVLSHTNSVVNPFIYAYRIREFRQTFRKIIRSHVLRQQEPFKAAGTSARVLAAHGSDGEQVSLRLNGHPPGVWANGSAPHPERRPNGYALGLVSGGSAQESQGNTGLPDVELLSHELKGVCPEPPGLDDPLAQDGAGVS
D(1A) dopamine receptor, sequence (P21728 whole entry): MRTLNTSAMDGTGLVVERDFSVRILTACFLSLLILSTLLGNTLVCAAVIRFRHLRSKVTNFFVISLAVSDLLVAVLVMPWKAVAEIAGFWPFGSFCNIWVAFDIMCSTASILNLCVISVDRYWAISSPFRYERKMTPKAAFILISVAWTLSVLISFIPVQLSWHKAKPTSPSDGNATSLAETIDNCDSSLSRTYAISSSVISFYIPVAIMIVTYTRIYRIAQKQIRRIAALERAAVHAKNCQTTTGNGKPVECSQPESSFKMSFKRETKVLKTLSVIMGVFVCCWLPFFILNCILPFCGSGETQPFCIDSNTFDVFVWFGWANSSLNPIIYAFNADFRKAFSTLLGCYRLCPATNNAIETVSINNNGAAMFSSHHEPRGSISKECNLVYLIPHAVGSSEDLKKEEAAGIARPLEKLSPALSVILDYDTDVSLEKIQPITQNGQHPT
Melanocortin receptor 4, sequence (P32245 whole entry): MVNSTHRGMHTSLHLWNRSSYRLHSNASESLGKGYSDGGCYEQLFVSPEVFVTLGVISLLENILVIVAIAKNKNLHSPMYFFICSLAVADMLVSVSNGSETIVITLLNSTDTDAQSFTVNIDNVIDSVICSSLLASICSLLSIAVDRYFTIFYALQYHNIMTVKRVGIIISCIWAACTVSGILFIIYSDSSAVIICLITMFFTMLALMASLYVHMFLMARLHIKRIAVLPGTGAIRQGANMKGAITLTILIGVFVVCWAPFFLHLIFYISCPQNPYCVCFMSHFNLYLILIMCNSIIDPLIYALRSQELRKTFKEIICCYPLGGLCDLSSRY
Melanocortin receptor 3, sequence (P41968 whole entry): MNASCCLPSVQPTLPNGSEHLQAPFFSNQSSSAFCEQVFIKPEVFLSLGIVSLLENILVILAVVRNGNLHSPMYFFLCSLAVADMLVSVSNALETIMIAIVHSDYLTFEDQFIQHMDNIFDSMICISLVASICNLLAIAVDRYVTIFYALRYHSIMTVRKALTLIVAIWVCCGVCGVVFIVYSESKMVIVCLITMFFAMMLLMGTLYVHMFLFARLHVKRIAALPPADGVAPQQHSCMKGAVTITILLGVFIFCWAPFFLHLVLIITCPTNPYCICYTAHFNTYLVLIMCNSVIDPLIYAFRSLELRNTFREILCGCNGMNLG
Vasopressin V1a receptor, sequence (P37288 whole entry): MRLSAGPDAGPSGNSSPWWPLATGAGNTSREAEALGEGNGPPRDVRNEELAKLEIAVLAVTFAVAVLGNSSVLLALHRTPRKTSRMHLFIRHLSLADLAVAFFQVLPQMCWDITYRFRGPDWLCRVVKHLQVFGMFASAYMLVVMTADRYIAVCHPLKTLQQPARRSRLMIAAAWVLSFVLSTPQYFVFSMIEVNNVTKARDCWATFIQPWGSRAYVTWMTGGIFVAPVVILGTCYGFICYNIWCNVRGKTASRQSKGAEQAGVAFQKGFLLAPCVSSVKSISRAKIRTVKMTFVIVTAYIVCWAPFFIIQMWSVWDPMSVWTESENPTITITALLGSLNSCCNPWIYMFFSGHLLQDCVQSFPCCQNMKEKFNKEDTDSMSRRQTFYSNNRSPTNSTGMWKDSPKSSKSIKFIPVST

For the molecule `CCOC(=O)O[C@]1(C(=O)COC(=O)CC)CC[C@H]2[C@@H]3CCC4=CC(=O)C=C[C@]4(C)[C@H]3[C@@H](O)C[C@@]21C` [PREDNICARBATE], the AC50 was greater than 10 µM in experiment [1]; greater than 10 µM in [2]; greater than 10 µM at Vasopressin V1a receptor; greater than 30 µM in [3]; greater than 10 µM in [4]; greater than 10 µM at Melanocortin receptor 3. Besides, the AC50 (in experiment [5]; in experiment [6]; in [7]; in experiment [8]; on Adenosine receptor A2a; at D(1A) dopamine receptor) was greater than 10 µM each time. Also, at Melanocortin receptor 4, the AC50 is greater than 10 µM.

On to `OCC(CO)N[C@H]1C[C@](O)(CO)[C@@H](O)[C@H](O)[C@H]1O` [VOGLIBOSE], for which the AC50 (in [1]; in [2]; on Vasopressin V1a receptor; in experiment [3]; in experiment [4]; at Melanocortin receptor 3) was greater than 30 µM throughout. For the same molecule, the AC50 (in experiment [5]; in experiment [6]; in experiment [7]; in experiment [8]; on Adenosine receptor A2a; at D(1A) dopamine receptor) was greater than 30 µM throughout. In addition, on Melanocortin receptor 4, the AC50 is greater than 30 µM.

With `CC1NCCOC1c1ccccc1` (configuration not stated) [PHENMETRAZINE], the AC50 was greater than 10 µM in [1]; greater than 10 µM in experiment [2]; greater than 30 µM on Vasopressin V1a receptor; greater than 30 µM in experiment [3]; greater than 10 µM in experiment [4]; greater than 30 µM at Melanocortin receptor 3. Moreover, the AC50 in experiment [5] was greater than 10 µM; in [6] it was greater than 30 µM; in experiment [7], greater than 10 µM; in [8], greater than 30 µM; at Adenosine receptor A2a it was greater than 30 µM; at D(1A) dopamine receptor, greater than 10 µM. The AC50 at Melanocortin receptor 4 was greater than 30 µM.

Regarding `C[C@@H](Cc1ccccc1)N(C)Cc1ccccc1` [BENZPHETAMINE], the AC50 is greater than 10 µM in experiment [1]; greater than 10 µM in experiment [2]; greater than 10 µM at Vasopressin V1a receptor; greater than 30 µM in [3]; greater than 10 µM in experiment [4]; greater than 10 µM on Melanocortin receptor 3. Also, the AC50 (in experiment [5]; in [6]; in experiment [7]; in [8]; on Adenosine receptor A2a; on D(1A) dopamine receptor) was greater than 10 µM in each case. The AC50 at Melanocortin receptor 4 is greater than 10 µM.

Take `CC(C)CN(C[C@@H](O)[C@H](Cc1ccccc1)NC(=O)O[C@H]1CCOC1)S(=O)(=O)c1ccc(N)cc1`: the AC50 in experiment [1] was greater than 10 µM; in experiment [2] it was greater than 10 µM; at Vasopressin V1a receptor it was greater than 30 µM; in experiment [3] it was greater than 30 µM; in experiment [4], greater than 10 µM; at Melanocortin receptor 3 it was greater than 30 µM. Also, the AC50 in [5] is greater than 10 µM; in [6], greater than 30 µM; in [7], greater than 10 µM; in experiment [8] it was greater than 30 µM; on Adenosine receptor A2a, greater than 30 µM; at D(1A) dopamine receptor, greater than 10 µM. For the same molecule, the AC50 at Melanocortin receptor 4 is greater than 30 µM.

With `O=C1CN=C(c2ccccc2Cl)c2cc([N+](=O)[O-])ccc2N1` [CLONAZEPAM], the AC50 was greater than 10 µM in experiment [1]; greater than 10 µM in experiment [2]; greater than 10 µM at Vasopressin V1a receptor; greater than 30 µM in experiment [3]; greater than 10 µM in experiment [4]; greater than 30 µM at Melanocortin receptor 3. The AC50 in [5] is greater than 10 µM; in experiment [6] it was greater than 30 µM; in experiment [7], greater than 10 µM; in [8] it was greater than 30 µM; on Adenosine receptor A2a it was greater than 30 µM; on D(1A) dopamine receptor, greater than 10 µM. At Melanocortin receptor 4, the AC50 was greater than 30 µM.

Regarding `C=C(c1ccccc1OCc1cccc(Cl)c1)n1ccnc1` [CROCONAZOLE], the AC50 in [1] is greater than 10 µM; in [2], greater than 10 µM; at Vasopressin V1a receptor, greater than 30 µM; in experiment [3], greater than 30 µM; in experiment [4] it was greater than 10 µM; at Melanocortin receptor 3 it was greater than 30 µM. For the same molecule, the AC50 in experiment [5] is greater than 10 µM; in [6] it was greater than 30 µM; in [7] it was greater than 10 µM; in experiment [8], greater than 30 µM; at Adenosine receptor A2a, greater than 30 µM; on D(1A) dopamine receptor it was greater than 10 µM. In addition, on Melanocortin receptor 4, the AC50 was greater than 30 µM.

Take `OCC(O)COc1ccc(Cl)cc1` (configuration not stated): the AC50 is greater than 10 µM in experiment [1]; greater than 10 µM in [2]; greater than 10 µM at Vasopressin V1a receptor; greater than 30 µM in [3]; greater than 10 µM in experiment [4]; greater than 10 µM on Melanocortin receptor 3. The AC50 (in [5]; in [6]; in experiment [7]; in experiment [8]; on Adenosine receptor A2a; on D(1A) dopamine receptor) was greater than 10 µM each time. The AC50 on Melanocortin receptor 4 is greater than 10 µM.

As for `CCOC(=O)C1=C(C)NC(C)=C(C(=O)OC)C1c1cccc(Cl)c1Cl` (configuration not stated) [FELODIPINE], the AC50 was greater than 10 µM in experiment [1]; greater than 10 µM in experiment [2]; greater than 10 µM on Vasopressin V1a receptor; greater than 30 µM in [3]; greater than 10 µM in experiment [4]; greater than 30 µM on Melanocortin receptor 3. Besides, the AC50 in [5] is greater than 10 µM; in [6], greater than 30 µM; in experiment [7], greater than 10 µM; in experiment [8], greater than 30 µM; at Adenosine receptor A2a, greater than 30 µM; at D(1A) dopamine receptor, greater than 10 µM. On Melanocortin receptor 4, this molecule gave an AC50 greater than 30 µM.
